{"source": "ChEMBL document CHEMBL5528047", "about": "“A Potent SOS1 PROTAC Degrader with Synergistic Efficacy in Combination with KRASG12C Inhibitor” (J Med Chem, 2024)", "key": {"NCI-H358 [1]": {"tested_on": "NCI-H358", "assay": "Synergistic antiproliferative activity against human NCI-H358 cells assessed as combination index incubated for 5 days in presence of 4-((S)-4-acryloyl-2-methylpiperazin-1-yl)-6-fluoro-7-(2-fluoro-6-hydroxyphenyl)-1-(2-isopropyl-4-methylpyridin-3-yl)pyrido[2,3-d]pyrimidin-2(1H)-one", "type": "functional", "conditions": "time 5 day"}, "SW837 [2]": {"tested_on": "SW837", "assay": "Antiproliferative activity against human SW837 cells incubated for 6 days by CCK8 assay", "type": "functional, cell-based", "conditions": "SW837, 144 h"}, "[3]": {"target": "T1, von Hippel-Lindau disease tumor suppressor/Son of sevenless homolog 1 (Homo sapiens, UniProt Q07889+P40337)", "assay": "Protac activity at VHL/SOS1 in human MIA PaCa-2 cells assessed as maximum SOS1 degradation at 0.003 to 10 uM incubated for 24 hrs by Western blotting analysis", "type": "cell-based", "conditions": "dose 0.003-10 µM"}, "[4]": {"assay": "Cmax in ICR mouse at 10 mg/kg, po measured upto 24 hrs by LC-MS/MS analysis", "type": "ADME, organism-based", "conditions": "in vivo"}, "K562 [5]": {"tested_on": "K562", "assay": "Antitumor activity against human K562 cells xenografted in NOD-SCID mouse assessed as tumor growth inhibition at 5 mg/kg, ip administered as 5 days on and 2 days off schedule for 21 days", "type": "functional", "conditions": "K562, 120 h, time 5 day, read-out: TGI"}, "MIA PaCa-2 [6]": {"tested_on": "MIA PaCa-2", "assay": "Antiproliferative activity against human MIA PaCa-2 cells incubated for 6 days by CCK8 assay", "type": "functional, cell-based", "conditions": "MIA PaCa-2, 144 h"}, "SW837 [7]": {"tested_on": "SW837", "assay": "Inhibition of ERK phosphorylation in human SW837 cells at 1 uM measured after 24 to 72 hrs in presence of AMG510 by Western blotting analysis", "type": "cell-based", "conditions": "time 24-72 hrs"}, "NCI-H358 [8]": {"tested_on": "NCI-H358", "assay": "Inhibition of colony formation in human NCI-H358 cells at 1 to 9 uM incubated for 10 days by crystal violet staining based assay", "type": "functional, cell-based", "conditions": "dose 1-9 µM, time 10.0 day"}, "K562 [9]": {"tested_on": "K562", "assay": "Effect on total ERK level in human K562 cells at 0.3 to 3 uM incubated for 24 hrs by Western blotting analysis", "type": "functional, cell-based", "conditions": "dose 0.3-3 µM"}, "[10]": {"target": "T1, von Hippel-Lindau disease tumor suppressor/Son of sevenless homolog 1", "assay": "Protac activity at VHL/SOS1 in human PANC-1 cells assessed as maximum SOS1 degradation at 0.003 to 10 uM incubated for 24 hrs by Western blotting analysis", "type": "cell-based", "conditions": "dose 0.003-10 µM"}, "[11]": {"assay": "AUC(0 to t) in ICR mouse at 10 mg/kg, po measured upto 24 hrs by LC-MS/MS analysis", "type": "ADME, organism-based", "conditions": "in vivo"}, "MIA PaCa-2 [12]": {"tested_on": "MIA PaCa-2", "assay": "Inhibition of ERK phosphorylation in human MIA PaCa-2 cells at 1 uM measured after 24 to 72 hrs in presence of AMG510 by Western blotting analysis", "type": "cell-based", "conditions": "time 24-72 hrs"}, "[13]": {"target": "T1, von Hippel-Lindau disease tumor suppressor/Son of sevenless homolog 1", "assay": "Protac activity at VHL/SOS1 in human MIA PaCa-2 cells assessed as SOS1 degradation incubated for 24 hrs by Western blotting analysis", "type": "cell-based"}, "NCI-H358 [14]": {"tested_on": "NCI-H358", "assay": "Antitumor activity against human NCI-H358 cells xenografted in BALB/c mouse assessed as tumor growth inhibition at 30 mg/kg, ip administered once daily for 28 days in presence of 10 mg/kg 4-((S)-4-acryloyl-2-methylpiperazin-1-yl)-6-fluoro-7-(2-fluoro-6-hydroxyphenyl)-1-(2-isopropyl-4-methylpyridin-3-yl)pyrido[2,3-d]pyrimidin-2(1H)-one", "type": "functional", "conditions": "NCI-H358, 672 h, time 28 day, read-out: TGI"}, "MIA PaCa-2 [15]": {"tested_on": "MIA PaCa-2", "assay": "(§1) Induction of apoptosis in human MIA PaCa-2 cells assessed as increase in cleaved caspase-3 level incubated for 24 hrs in presence of 4-((S)-4-acryloyl-2-methylpiperazin-1-yl)-6-fluoro-7-(2-fluoro-6-hydroxyphenyl)-1-(2-isopropyl-4-methylpyridin-3-yl)pyrido[2,3-d]pyrimidin-2(1H)-one by Western blotting assay", "type": "functional, cell-based"}, "MIA PaCa-2 [16]": {"tested_on": "MIA PaCa-2", "assay": "Antiproliferative activity against human MIA PaCa-2 cells incubated for 72 hrs by CCK8 assay", "type": "functional, cell-based", "conditions": "MIA PaCa-2, 72 h"}, "[17]": {"target": "T1, von Hippel-Lindau disease tumor suppressor/Son of sevenless homolog 1", "assay": "Protac activity at VHL/SOS1 in human PANC-1 cells assessed as SOS1 degradation at 1 uM incubated for 96 hrs by Western blotting analysis", "type": "cell-based"}, "[18]": {"target": "T1, von Hippel-Lindau disease tumor suppressor/Son of sevenless homolog 1", "assay": "Protac activity at VHL/SOS1 in human PANC-1 cells assessed as SOS1 degradation incubated for 24 hrs by Western blotting analysis", "type": "cell-based"}, "[19]": {"target": "T1, von Hippel-Lindau disease tumor suppressor/Son of sevenless homolog 1", "assay": "Protac activity at VHL/SOS1 in human NCI-H358 cells assessed as maximum SOS1 degradation at 0.003 to 10 uM incubated for 24 hrs by Western blotting analysis", "type": "cell-based", "conditions": "dose 0.003-10 µM"}, "[20]": {"target": "T1, von Hippel-Lindau disease tumor suppressor/Son of sevenless homolog 1", "assay": "Protac activity at VHL/SOS1 in human K562 cells assessed as SOS1 degradation at 1 uM preincubated with MLN4924 for 2 hrs followed by compound addition and measured after 2 hrs by Western blotting analysis", "type": "cell-based"}, "[21]": {"target": "T1, von Hippel-Lindau disease tumor suppressor/Son of sevenless homolog 1", "assay": "Protac activity at VHL/SOS1 in human MIA PaCa-2 cells assessed as SOS1 degradation at 1 uM preincubated with MG132 for 2 hrs followed by compound addition and measured after 3 hrs by Western blotting analysis", "type": "cell-based"}, "[22]": {"target": "T1, von Hippel-Lindau disease tumor suppressor/Son of sevenless homolog 1", "assay": "Protac activity at VHL/SOS1 in human MIA PaCa-2 cells assessed as SOS1 degradation at 1 uM incubated for 96 hrs by Western blotting analysis", "type": "cell-based"}, "NCI-H358 [23]": {"tested_on": "NCI-H358", "assay": "Inhibition of ERK phosphorylation in human NCI-H358 cells at 1 uM measured after 24 to 72 hrs in presence of AMG510 by Western blotting analysis", "type": "cell-based", "conditions": "time 24-72 hrs"}, "[24]": {"target": "T1, von Hippel-Lindau disease tumor suppressor/Son of sevenless homolog 1", "assay": "Protac activity at VHL/SOS1 in human K562 cells assessed as SOS1 degradation at 1 uM preincubated with BI3406 for 2 hrs followed by compound addition and measured after 2 hrs by Western blotting analysis", "type": "cell-based"}, "MIA PaCa-2 [25]": {"tested_on": "MIA PaCa-2", "assay": "as §1, with “PARP-1” for “caspase-3”", "type": "functional, cell-based"}, "[26]": {"target": "T1, von Hippel-Lindau disease tumor suppressor/Son of sevenless homolog 1", "assay": "Protac activity at VHL/SOS1 in human PANC-1 cells assessed as SOS1 degradation at 10 uM by Western blotting analysis relative to control", "type": "cell-based"}, "[27]": {"target": "T1, von Hippel-Lindau disease tumor suppressor/Son of sevenless homolog 1", "assay": "Protac activity at VHL/SOS1 in human K562 cells assessed as maximum SOS1 degradation at 0.003 to 10 uM incubated for 24 hrs by Western blotting analysis", "type": "cell-based", "conditions": "dose 0.003-10 µM"}, "NCI-H358 [28]": {"tested_on": "NCI-H358", "assay": "Antitumor activity against human NCI-H358 cells xenografted in BALB/c mouse assessed as tumor growth inhibition at 30 mg/kg, ip administered once daily for 28 days", "type": "functional", "conditions": "NCI-H358, 672 h, time 28 day, read-out: TGI"}, "[29]": {"assay": "Half life in ICR mouse at 10 mg/kg, po measured upto 24 hrs by LC-MS/MS analysis", "type": "ADME, organism-based", "conditions": "in vivo"}, "[30]": {"assay": "Toxicity in BALB/c mouse xenografted with human NCI-H358 cells assessed as body weight loss at 30 mg/kg, ip administered once daily for 28 days in presence of 10 mg/kg 4-((S)-4-acryloyl-2-methylpiperazin-1-yl)-6-fluoro-7-(2-fluoro-6-hydroxyphenyl)-1-(2-isopropyl-4-methylpyridin-3-yl)pyrido[2,3-d]pyrimidin-2(1H)-one", "type": "organism-based", "conditions": "in vivo, 672 h, time 28 day"}, "K562 [31]": {"tested_on": "K562", "assay": "Antitumor activity against human K562 cells xenografted in NOD-SCID mouse assessed as tumor growth inhibition at 25 mg/kg, ip administered as 5 days on and 2 days off schedule for 21 days", "type": "functional", "conditions": "K562, 120 h, time 5 day, read-out: TGI"}, "[32]": {"assay": "Toxicity in NOD-SCID mouse assessed as body weight loss at 5 to 25 mg/kg, ip administered as 5 days on and 2 days off schedule for 21 days", "type": "organism-based", "conditions": "in vivo, 120 h, dose 5-25 mg/kg, time 5 day"}}, "note": "pIC50: −log10 of the molar value. Active and inactive are the calls of the source. No cut-off for these calls is given here."}
{"smiles": "COc1cc2nc(C)nc(N[C@H](C)c3cc(N)cc(C(F)(F)F)c3)c2cc1OCCCCC(=O)N[C@H](C(=O)N1C[C@H](O)C[C@H]1C(=O)NCc1ccc(-c2scnc2C)cc1)C(C)(C)C", "values": [{"measurement": "CI", "setting": "NCI-H358 [1]", "value": "<1"}, {"measurement": "pIC50", "setting": "SW837 [2]", "value": 5.99}, {"measurement": "Emax", "setting": "[3]", "value": "> 90", "unit": "%"}, {"measurement": "Cmax", "setting": "[4]", "value": 1650, "unit": "ng/mL"}, {"measurement": "inhibition in vivo at 5 mg/kg", "setting": "K562 [5]", "value": 56.3, "unit": "%"}, {"measurement": "pIC50", "setting": "MIA PaCa-2 [6]", "value": 5.46}, {"measurement": "inhibition", "setting": "SW837 [7]", "value": "Active"}, {"measurement": "inhibition", "setting": "NCI-H358 [8]", "value": "Active"}, {"measurement": "Activity", "setting": "K562 [9]", "value": "inactive"}, {"measurement": "Emax", "setting": "[10]", "value": "> 90", "unit": "%"}, {"measurement": "AUC(0-t) at 24 h", "setting": "[11]", "value": 4260, "unit": "ng·h/mL"}, {"measurement": "inhibition", "setting": "MIA PaCa-2 [12]", "value": "Active"}, {"measurement": "Activity", "setting": "[13]", "value": "Dose-Dependent Effect"}, {"measurement": "DC50", "setting": "[13]", "value": 61, "unit": "nM"}, {"measurement": "inhibition in vivo at 30 mg/kg", "setting": "NCI-H358 [14]", "value": 78.8, "unit": "%"}, {"measurement": "Activity", "setting": "MIA PaCa-2 [15]", "value": "Active"}, {"measurement": "pIC50", "setting": "MIA PaCa-2 [16]", "value": 7.01}, {"measurement": "Activity", "setting": "[17]", "value": "Active"}, {"measurement": "Activity", "setting": "[18]", "value": "Dose-Dependent Effect"}, {"measurement": "DC50", "setting": "[18]", "value": 43, "unit": "nM"}, {"measurement": "Emax", "setting": "[19]", "value": "> 90", "unit": "%"}, {"measurement": "Activity", "setting": "[20]", "value": "inactive"}, {"measurement": "Activity", "setting": "[21]", "value": "inactive"}, {"measurement": "Activity", "setting": "[22]", "value": "Active"}, {"measurement": "inhibition", "setting": "NCI-H358 [23]", "value": "Active"}, {"measurement": "Activity", "setting": "[24]", "value": "inactive"}, {"measurement": "Activity", "setting": "MIA PaCa-2 [25]", "value": "Active"}, {"measurement": "Activity", "setting": "[26]", "value": 93.9, "unit": "%"}, {"measurement": "Emax", "setting": "[27]", "value": "> 90", "unit": "%"}, {"measurement": "inhibition in vivo at 30 mg/kg", "setting": "NCI-H358 [28]", "value": 11.4, "unit": "%"}, {"measurement": "half-life", "setting": "[29]", "value": 4.19, "unit": "h"}, {"measurement": "Activity", "setting": "[30]", "value": "Non-Toxic"}, {"measurement": "inhibition in vivo at 25 mg/kg", "setting": "K562 [31]", "value": 72.3, "unit": "%"}, {"measurement": "Activity", "setting": "[32]", "value": "Non-Toxic"}]}
